Measured values: patent publication US20110130413A1, “SUBSTITUTED QUINAZOLINES” (Shire LLC, priority 2008, published 2011)
≈ marks a conversion by molar mass, not a printed value. Where “and” joins values, the source holds several entries; their conditions need not be identical. Identical values can stand only once. Marks after values point to notes of the source that are not given here.

What was measured:
Solubility = type: physicochemical
[1] = Comparative bioavailability study in the dog; type: in vivo
Text: The potential benefit of improved water solubility on the absorption of these open-ring analogues was shown in a comparative bioavailability study in the dog. Using the unsubstituted ethyl-5,6-dichloro-3,4-dihydro-2-(1H)-iminoquinazoline-3-acetate HBr as a model compound, a comparison was made of the systemic availability of anagrelide when given as this compound or as anagrelide itself in equimolar doses ([…]).

PDEIII = PDEIII inhibition; type: biochemical; settings: more potent than anagrelide itself
[2] = Conversion of ring open prodrug to anagrelide in human plasma (LC/MS-MS); type: in vitro ADME; settings: human plasma spiked 100 ng/mL, room temperature, first point of measurement (immediately after mixing)
Procedure: Such prodrugs are likely to be extremely rapidly and completely cyclised in plasma to the closed ring 3-alkylanagrelide analogues. […] Human plasma was spiked with anagrelide prodrug (final concentration 100 ng/mL). Immediately after mixing, and at 15, 30, 45 and 60 minutes afterward samples were analysed for anagrelide prodrug and anagrelide.

[3] = male dogs, single oral (capsule), anagrelide 6.1 mg/kg or ester prodrug 7.5 mg/kg, individual dogs
[4] = male dogs, single oral (capsule), anagrelide 6.1 mg/kg or ester prodrug 7.5 mg/kg, individual dogs, listed as Ester prodrug of anagrelide, HBr
[5] = male dogs, single oral (capsule), anagrelide 6.1 mg/kg or ester prodrug 7.5 mg/kg, median

Which solubility (Solubility; aqueous solution, aqueous buffer, at pH 11.4) does the source give for O=C1CN2Cc3c(ccc(Cl)c3Cl)N=C2N1 [anagrelide, 6,7-dichloro-1,5-dihydroimidazo[2,1-b]-quinazolin-2(3H)-one] here?
The solubility was ~1000 µg/mL (≈ 3900 µM).

What about the solubility (Solubility; aqueous solution, aqueous buffer, pH range of 4-8) of the same molecule?
Its solubility is < 10 µg/mL.

And the solubility (Solubility; simulated gastric fluid, in 0.1M HCl)?
Its solubility is ~170 µg/mL (≈ 664 µM).

And the Tmax of anagrelide [1, 3]?
The Tmax of anagrelide was 2 h.

What about the k of anagrelide [1, 3] of the same molecule?
Its k of anagrelide is 0.4459 ^c hours^−1 and 0.3119 ^c hours^−1 and 0.1953 ^d hours^−1.

With O=C1NC2=Nc3ccc(Cl)c(Cl)c3CN2C1O (stereo not drawn) [3-hydroxyanagrelide] as the molecule, how does the “potency as an inhibitor of PDEIII relative to anagrelide” value (PDEIII) read?
Its value is ~40 fold.

With Br.CCOC(=O)CN1Cc2c(ccc(Cl)c2Cl)NC1=N [ethyl-5,6-dichloro-3,4-dihydro-2-(1H)-iminoquinazoline-3-acetate HBr] as the molecule, how does the “prodrug remaining in human plasma (conversion to anagrelide)” value [2] read?
The value was “no prodrug could be found”.

And the “Cmax for anagrelide, range over dogs” value ([1]; dog, oral, equimolar doses)?
The value was 170-418 ngmL^−1.

And the “t½ of 3-hydroxy anagrelide, calculated as ln2/(mean rate constant)” value ([1]; male dogs, single oral (capsule), anagrelide 6.1 mg/kg or ester prodrug 7.5 mg/kg)?
Its value is 2.1 ^e hours.

What about the “AUCinfin of 3-hydroxy anagrelide” value [1, 4] of the same molecule?
The value was 1290 ^c ng · h/mL.

What about the AUCinfin of anagrelide [1, 4] of the same molecule?
The AUCinfin of anagrelide was 1440 ^d ng · h/mL.

And the “k of 3-hydroxy anagrelide” value [1, 4]?
The value was 0.1235 ^c hours^−1.

And the k of anagrelide [1, 4]?
The k of anagrelide was 0.1789 ^d hours^−1.

What about the “t½ of 3-hydroxy anagrelide” value [1, 4] of the same molecule?
The value was 5.6 ^c hours.

What about the t½ of anagrelide [1, 4] of the same molecule?
The t½ of anagrelide was 3.9 ^d hours.

And the “Tmax of 3-hydroxy anagrelide, median” value [1, 5]?
Its value is 3.5 ^b hours.

What about the “Tmax of anagrelide, median” value [1, 5] of the same molecule?
Its value is 3.5 ^b hours.

And the “t½ of anagrelide, calculated as ln2/(mean rate constant)” value ([1]; male dogs, single oral (capsule), ester prodrug 7.5 mg/kg)?
Its value is 1.8 ^f hours.
